Key:
U-937 [1] = tested on: U-937
WSU-DLCL2 = assay: Cell Titer Glo viability, Mab A + chemotherapeutic/targeted agent (Example 9); format: cell-based; conditions: 72 hours
U-937 [2] = assay: as above; conditions: combination with Mab A; U-937 (NHL); 72 hours
Toledo = assay: as above; format: cell-based; conditions: combination with Mab A; Toledo (NHL); 72 hours
DOHH-2 = assay: as above; conditions: combination with Mab A; DOHH-2 (NHL); 72 hours
[3] = tested on: primary human hepatocytes; assay: as above; format: cell-based; conditions: 72 hours
OCI-LY7 = assay: as above; conditions: combination with Mab A; OCI-LY7 (NHL); 72 hours
Karpas-422 = assay: as above; format: cell-based; conditions: combination with Mab A; Karpas-422 (NHL); 72 hours
HT 1080 [4] = assay: Cell Titer Glo viability, Mab A + SMAC mimetics (Example 13); format: cell-based; conditions: SMAC mimetic in combination with Mab A
Method: (§1) Synergy was determined as described in earlier examples. The average Bliss synergy scores for combinations of Mab A and SMAC mimetic on the various tumor cell lines are shown in Table 15.

HCT 116 [5] = assay: as above; format: cell-based; conditions: SMAC mimetic in combination with Mab A
Method: as §1

SK-MEL-5 = assay: as above; format: cell-based; conditions: SMAC mimetic in combination with Mab A
Method: as §1

EBC-1 = assay: as above; format: cell-based; conditions: SMAC mimetic in combination with Mab A
Method: as §1

SW1353 [6] = assay: as above; format: cell-based; conditions: SMAC mimetic in combination with Mab A
Method: as §1

OVCAR-4 = assay: as above; format: cell-based; conditions: SMAC mimetic in combination with Mab A
Method: as §1

MEWO = assay: Cell Titer Glo viability, Mab A + birinapant (Example 10); format: cell-based; conditions: MEWO (Melanoma)
Method: (§2) Cell viability curves for combinations of anti-DR5 IgM Mab A with birinapant on A2058, BT-20, DV-90, ES-2, HCC15, HCT 116, HT 1080, KYSE 410, MEWO, OVCAR-5, SK-LU-1, SK-MEL-5, SNU-1, SW780, SW1353, and T24 are shown in FIGS. 19A, 19C, 19E, 19G, 19I, 19K, 19M, 19O, 19Q, 19S, 19U, 19W, 19Y, 19AA, 19AC, and 19AE, respectively. Synergy was determined as described in earlier examples.

ES-2 = assay: as above; format: cell-based; conditions: ES-2 (Ovarian)
Method: as §2

KYSE 410 = assay: as above; format: cell-based; conditions: KYSE 410 (Esophageal)
Method: as §2

HT 1080 [7] = assay: as above; format: cell-based; conditions: HT 1080 (Fibrosarcoma)
Method: as §2

T24 = assay: as above; format: cell-based; conditions: T24 (Bladder)
Method: as §2

OVCAR-5 = assay: as above; format: cell-based; conditions: OVCAR-5 (Ovarian)
Method: as §2

HCT 116 [8] = assay: as above; format: cell-based; conditions: HCT 116 (Colorectal)
Method: as §2

SW780 = assay: as above; format: cell-based; conditions: SW780 (Bladder)
Method: as §2

A2058 = assay: as above; format: cell-based; conditions: A2058 (Melanoma)
Method: as §2

HCC15 = assay: as above; format: cell-based; conditions: HCC15 (Lung)
Method: as §2

SNU-1 = assay: as above; format: cell-based; conditions: SNU-1 (Gastric)
Method: as §2

SW1353 [9] = assay: as above; format: cell-based; conditions: SW1353 (Chondrosarcoma)
Method: as §2

BT-20 = assay: as above; format: cell-based; conditions: BT-20 (TNBC)
Method: as §2

SA3840 tumor fragments = assay: SA3840 osteosarcoma PDX model (Example 11); format: in vivo, mice; conditions: birinapant 30 mg/kg i.p., alone or with Mab A 5 mg/kg i.v.; n=5 animals/group
[10] = tested on: DR5 agonist-resistant MDA-MB-231 cells; assay: Cell Titer Glo viability, Mab A + SMAC mimetic on DR5 agonist-resistant tumor cells (Example 8); format: cell-based
MDA-MB-231 tumor cells = assay: Cell Titer Glo viability, Mab A + SMAC mimetic (Example 7); conditions: MDA-MB-231 cells; 72 hours
EBC-1 tumor cells = assay: EBC-1 non-small cell lung cancer (NSCLC) model (Example 11); format: in vivo, mice; conditions: birinapant 30 mg/kg i.p. every 3 days, alone or with Mab A 5 mg/kg i.v.; n=10 animals/group
Source text: 3×10^6 EBC-1 tumor cells were implanted subcutaneously in the flanks of female BALB/c nude mice.

8305C = assay: Cell Titer Glo viability, Mab A + birinapant, head and neck tumor cell lines (Example 12); format: cell-based; conditions: 8305C head and neck cancer cell line
Method: (§3) Exemplary cell viability curves for combinations of anti-DR5 IgM Mab A with birinapant on Detroit 562 and KYSE270 are shown in FIGS. 22A and 22C, respectively. Synergy was determined as described in earlier examples. […] The Average Bliss synergy scores for combinations of Mab A and birinapant on the various head and neck tumor cell lines are shown in Table 14.

KYSE150 = assay: as above; format: cell-based; conditions: KYSE150 head and neck cancer cell line
Method: as §3

A253 = assay: as above; format: cell-based; conditions: A253 head and neck cancer cell line
Method: as §3

Detroit 562 = assay: as above; format: cell-based; conditions: Detroit 562 head and neck cancer cell line
Method: as §3

8505C = assay: as above; format: cell-based; conditions: 8505C head and neck cancer cell line
Method: as §3

FaDu = assay: as above; format: cell-based; conditions: FaDu head and neck cancer cell line
Method: as §3

KYSE-70 = assay: as above; format: cell-based; conditions: KYSE-70 head and neck cancer cell line
Method: as §3

OE19 = assay: as above; format: cell-based; conditions: OE19 head and neck cancer cell line
Method: as §3

TE-1 = assay: as above; format: cell-based; conditions: TE-1 head and neck cancer cell line
Method: as §3

KYSE410 = assay: as above; format: cell-based; conditions: KYSE410 head and neck cancer cell line
Method: as §3

KYSE270 = assay: as above; format: cell-based; conditions: KYSE270 head and neck cancer cell line
Method: as §3

NCIN87 = assay: Cell Titer Glo viability, Mab A + chemotherapeutic agent, Bliss synergy (Example 1); format: cell-based; conditions: combination with anti-DR5 IgM Mab A; NCIN87, Gastric Adenocarcinoma, tubular; 72 hours
UMUC3 = assay: as above; format: cell-based; conditions: combination with anti-DR5 IgM Mab A; UMUC3, Bladder Transitional Cell Carcinoma; 72 hours
SNU5 = assay: as above; format: cell-based; conditions: combination with anti-DR5 IgM Mab A; SNU5, Gastric Adenocarcinoma; 72 hours
MOLM13 = assay: as above; format: cell-based; conditions: combination with anti-DR5 IgM Mab A; MOLM13, Blood (Leukemia) Acute myelogenous leukemia; 72 hours
BXPC3 = assay: as above; format: cell-based; conditions: combination with anti-DR5 IgM Mab A; BXPC3, Pancreas adenocarcinoma; 72 hours
NUGC4 = assay: as above; format: cell-based; conditions: combination with anti-DR5 IgM Mab A; NUGC4, Gastric Adenocarcinoma; 72 hours
HT1080 = assay: as above; format: cell-based; conditions: combination with anti-DR5 IgM Mab A; HT1080, Connective tissue Fibrosarcoma; 72 hours
NCIH2228 = assay: as above; format: cell-based; conditions: combination with anti-DR5 IgM Mab A; NCIH2228, Lung, Non-small cell; 72 hours
HT55 = assay: as above; format: cell-based; conditions: combination with anti-DR5 IgM Mab A; HT55, Colorectal Carcinoma; 72 hours
MV411 = assay: as above; format: cell-based; conditions: combination with anti-DR5 IgM Mab A; MV411, Blood (Leukemia) Acute myelogenous leukemia; 72 hours
PANC1 = assay: as above; format: cell-based; conditions: combination with anti-DR5 IgM Mab A; PANC1, Pancreas Ductal Adenocarcinoma, exocrine; 72 hours
NCIH508 = assay: as above; format: cell-based; conditions: combination with anti-DR5 IgM Mab A; NCIH508, Colorectal Caecum Adenocarcinoma; 72 hours
NCIH460 = assay: as above; format: cell-based; conditions: combination with anti-DR5 IgM Mab A; NCIH460, Lung, Non-small cell; 72 hours
HCT15 = assay: as above; format: cell-based; conditions: combination with anti-DR5 IgM Mab A; HCT15, Colorectal adenocarcinoma; 72 hours
ASPC1 = assay: as above; format: cell-based; conditions: combination with anti-DR5 IgM Mab A; ASPC1, Pancreas Ductal adenocarcinoma; 72 hours
LOUNH91 = assay: as above; format: cell-based; conditions: combination with anti-DR5 IgM Mab A; LOUNH91, Lung Squamous cell carcinoma; 72 hours
[11] = tested on: primary human hepatocytes; assay: as above; format: cell-based; conditions: combination with anti-DR5 IgM Mab A, Liver, 72 hours

With `COc1ccccc1-c1nccc(COc2ccccc2C[C@H](Oc2ncnc3sc(-c4ccc(F)cc4)c(-c4ccc(OCCN5CCN(C)CC5)c(Cl)c4C)c23)C(=O)O)n1` (atropisomer, axis not shown) [MIK665, MIK665/S-64315] the “single agent cytotoxicity (cell viability curves)” value (“single agent cytotoxicity” below) (U-937 [1]) was “complete cytotoxicity”, the “single agent cytotoxicity” value (WSU-DLCL2; WSU-DLCL2 cells) was “complete cytotoxicity” and the “Average Bliss score” value (WSU-DLCL2; combination with Mab A, WSU-DLCL2 (NHL)) was 16. The “Average Bliss score” value (U-937 [2]) was 4.8, the “Average Bliss score” value (Toledo) was 6.7 and the “Average Bliss score” value (DOHH-2) was 3.1. For the same compound, the “cytotoxicity in primary human hepatocytes” value [3] was “causes cytotoxicity”, the “Average Bliss score” value (OCI-LY7) was 3.5 and the “Average Bliss score” value (Karpas-422) was 3.7.

With `CC[C@H](NC(=O)[C@H](C)NC)C(=O)N1C[C@@H](O)C[C@H]1Cc1c(-c2[nH]c3cc(F)ccc3c2C[C@@H]2C[C@H](O)CN2C(=O)[C@H](CC)NC(=O)[C@H](C)NC)[nH]c2cc(F)ccc12` [birinapant, Birinapant] the “Average Bliss score” value (HT 1080 [4]) was 30, the “Average Bliss score” value (HCT 116 [5]) was 31 and the “Average Bliss score” value (SK-MEL-5) was 14. The “Average Bliss score” value (EBC-1) was 39, the “Average Bliss score” value (SW1353 [6]) was −0.6 and the “Average Bliss score” value (OVCAR-4) was 14. For the same compound, the “Avg Bliss score” value (MEWO) was 26, the “Avg Bliss score” value (ES-2) was 19 and the “Avg Bliss score” value (KYSE 410) was 42. The “Avg Bliss score” value (HT 1080 [7]) was 45, the “Avg Bliss score” value (T24) was 38 and the “Avg Bliss score” value (OVCAR-5) was 17. The “Avg Bliss score” value (HCT 116 [8]) was 36, the “Avg Bliss score” value (SW780) was 35 and the “Avg Bliss score” value (A2058) was 49. For the same compound, the “Avg Bliss score” value (HCC15) was 41, the “Avg Bliss score” value (SNU-1) was 39 and the “Avg Bliss score” value (SW1353 [9]) was 18. For the same compound, the “Avg Bliss score” value (BT-20) was 4, the “animals that missed doses due to body weight loss” value (SA3840 tumor fragments) was 1 animal and the “single agent cytotoxicity” value [10] was “little to no cytotoxicity”. The “single agent cytotoxicity” value (MDA-MB-231 tumor cells) was “little to no cytotoxicity”, the “mice that missed doses due to body weight loss” value (EBC-1 tumor cells) was 3 mice and the “Average Bliss score” value (8305C) was 27. For the same compound, the “Average Bliss score” value (KYSE150) was 0.2, the “Average Bliss score” value (A253) was 26 and the “Average Bliss score” value (Detroit 562) was 36. For the same compound, the “Average Bliss score” value (8505C) was 10, the “Average Bliss score” value (FaDu) was 16 and the “Average Bliss score” value (KYSE-70) was 25. For the same compound, the “Average Bliss score” value (OE19) was 17, the “Average Bliss score” value (TE-1) was 29 and the “Average Bliss score” value (KYSE410) was 35. For the same compound, the “Average Bliss score” value (KYSE270) was 15.

In the case of `COc1cccc2c1C(=O)c1c(O)c3c(c(O)c1C2=O)C[C@@](O)(C(=O)CO)C[C@@H]3O[C@H]1C[C@H](N)[C@H](O)[C@H](C)O1` [doxorubicin, Doxorubicin], the “Average Bliss score” value (NCIN87) is reported as 12, the “Average Bliss score” value (UMUC3) is reported as 8.8 and the “Average Bliss score” value (SNU5) is reported as 12. The “Average Bliss score” value (MOLM13) was 5.2, the “Average Bliss score” value (BXPC3) was 1.5 and the “Average Bliss score” value (NUGC4) was 8.9. For the same compound, the “Average Bliss score” value (HT1080) was 1.5, the “Average Bliss score” value (NCIH2228) was 16 and the “Average Bliss score” value (HT55) was 1.6. The “Average Bliss score” value (MV411) was 7.1, the “Average Bliss score” value (PANC1) was 7.3 and the “Average Bliss score” value (NCIH508) was 1.3. For the same compound, the “Average Bliss score” value (NCIH460) was 4, the “Average Bliss score” value (HCT15) was 10 and the “Average Bliss score” value (ASPC1) was −0.63. For the same compound, the “Average Bliss score” value (LOUNH91) was 12 and the “Average Bliss score” value [11] was 0.94.

— US20230174660A1, “USE OF A MULTIMERIC ANTI-DR5 BINDING MOLECULE IN COMBINATION WITH A CANCER THERAPY FOR TREATING CANCER” (IGM Biosciences, Inc., priority 2020, published 2023)
